Measurements published in US6867235B2, “Helianthrone derivatives as anti-cancer agents” (Yeda Research and Development Co. Ltd., priority 2000, dated 2005).

Assays:
[1] = system: U87MG glioblastoma cells; assay: MTT cell viability in complete darkness, U87MG cells; type: cell-based, human
Protocol: (§1) Human HL-60 leukemic cells were grown in RPMI-1640 supplemented with 15% fetal calf serum, […] and 100 units/ml penicillin-streptomycin. Human erythroleukemia K-562 cells (derived from a chronic myeloid leukemia pateient) were grown in the same medium supplemented with 10% fetal calf serum. These cells and the human U251 glioblastoma, U87MG glioblastoma and LAN5 neuroblastoma cells used in the experiments are available from the ATCC. All cell lines were cultured in a humidified 5% CO2/95% air atmosphere at 37° C.
(§2) Cell viability was monitored by the MTT assay which measures reduction of 3-(4,5-dimethylthiazol-2-yl)-2,5-diphenyl tetrazolium bromide to formasan by mitochondria of viable cells as described in Mossman, T., J. Immunogen., 21, 235-248 (1983). The cells are incubated with MTT for four hours at 37° C. and analyzed in an ELISA reader at 560 nm. The optical density of formasan generated by untreated cell cultures (O.D. control) is defined as one MTT unit. The number of MTT units in culture samples undergoing treatments is calculated as the ratio (O.D.sample−O.D.blank)/O.D.control).
(§3) Three human malignant cell lines were evaluated to sensitivity to dimethyl TMH in vitro. […] The medium was aspirated, the adherent monolayer was washed with phosphate-buffered saline, and cell viability was monitored by the MTI assay.

[2] = system: human peripheral blood lymphocytes (PBL); assay: MTT viability of primary peripheral blood lymphocytes in the dark and with light; type: cell-based; conditions: 72 hours
Protocol: as §2
Human peripheral blood lymphocytes (PBL) are non-proliferating cells in the absence of mitogenic stimuli. The effects of different doses of dimethyl-TMH on PBL were examined in the presence or absence of irradiation with polychromatic white light. PBL (post-mitotic) were plated (2×10^5 cells/well) in two separate round bottom 96-well plates (in triplicates). Dimethyl-TMH was added to the cultures. One plate was kept in the dark, and the other was exposed to polychromatic white light at a fluence rate of 8 mW/cm^2 for 30 min (a total of 14.4 J/cm^2). Both plates were then cultured at 37° C., 5% CO2 for 72 hours and cell viability was assayed by the MTT assay.

[3] = system: U251 human glioblastoma cells; assay: Cell cycle and DNA content analysis (propidium iodide, FACS) in the dark; type: cell-based; conditions: for cell cycle arrest: U251, dark
Excerpt: The cells were then stained with propidium iodide, washed with PBS and analyzed in a fluorescence activated cell sorter (FACS). A computer program arranged the DNA-related fluorescence as follows: the minimal amount of fluorescence is considered to be one whole set of cellular DNA related to the resting G1 phase. A double amount of fluorescence is considered to be G2 phase, in which the whole genome is duplicated following complete DNA synthesis, and the in-between amounts are considered to be the DNA synthetic S-phase, in which the total DNA synthesis is not yet completed.

[4] = system: LAN5 neuroblastoma cells; assay: MTT cell viability in complete darkness, LAN5 cells; type: cell-based, human; conditions: exposure at least 72 hours, 0.1-20 μM
Protocol: as §1, §2, §3

[5] = system: anaplastic squamous cell carcinoma tumors; assay: Tumor growth in mice bearing anaplastic squamous cell carcinoma tumors; type: in vivo, BALB/c mice; conditions: 200 μg/mouse every other day
[6] = Tolerability of intraperitoneal administration in mice; type: in vivo, BALB/c mice; conditions: i.p. on a daily basis for one week
[7] = system: SQ2 anaplastic squamous cell carcinoma; assay: Tumor foci in BALB/c mice bearing SQ2 squamous cell carcinoma treated with dimethyl-TMH; type: in vivo; conditions: for number of tumor foci / multifocal spread of the tumor: SQ2 tumor-bearing mice versus control
Protocol: The effective cytocidal activity of dimethyl-TMH in vitro encouraged the evaluation of its safety and anti-tumoral efficacy profile in tumor-bearing mice. Experiments were carried out in mice bearing tumors derived from the SQ2 highly metastatic anaplastic squamous cell carcinoma (SCC) line. This tumor develops as multifocal centers that spread at the vicinity of the primary tumor and metastases develop approximately two months after cell inoculation. Treatments with 300-600 μM dimethyl-TMH/mouse, administered twice or three-times a week were initiated when the tumors reached 5-7 mm in diameter.
When the primary tumors reached a diameter of 5 mm, therapy with 300 μM dimethyl-TMH/mouse, administered intraperitoneally twice per week, was initiated. Three weeks after the initiation of therapy, the number of tumor foci, which have developed at the primary tumor site, was recorded.

[8] = system: human malignant glioblastoma cell lines; assay: Photodynamic induction of cell death in glioblastoma cell lines with light; type: cell-based
Protocol: Cell killing by dimethyl-TMH occurred at doses in which hypericin had no effect on the cultures. […] The mechanisms that operate in the dark were very different from those that mediate light-induced photosensitization. In the dark, cell death occurs approximately four days after the compound is administered, whereas the cells died within 2-3 hours with light.
Photodynamic (PD) stress is the level of phototoxicity inflicted upon target cells by photodynamic compounds and exposure to light. Light irradiation was performed from a fluorescent source of two parallel 40 Watts tubes placed at a fixed distance of 16 cm and measured to emit an incidence of 4 mWatt/cm^2. Light intensities were quantitated using the IL 1350 Radiometer/Photometer, from International Light Inc., U.S.A.

[9] = system: tumor neovascularization; assay: Tumor neovascularization in tumor-bearing mice; conditions: mouse, in vivo
Excerpt: These hitherto unknown attributes were detected while studying the effects of hypericin and of helianthrone derivatives on breast adenocarcinoma tumors induced in mice with the DA-3^HI cell line and on murine anaplastic squamous carcinoma tumors induced with the SQ-2 cell line. Both are highly metastatic tumors and if surgically resected after having reached a diameter larger than 5 mm, the mice will go on to develop metastases in the lungs and liver. The metastases cause death of the animals within approximately two months following surgery.
By preventing development of new blood vessels to supply a growing metastasis, the rapidly growing metastatic focus is deprived of nutrients and oxygen for its rapidly multiplying cells and the lesion degenerates.

[10] = system: SQ2 highly metastatic anaplastic squamous cell carcinoma; assay: Survival of SQ2 squamous cell carcinoma-bearing mice treated with dimethyl-TMH; type: in vivo, BALB/c mice
Protocol: In another experiment, BALB/c mice were inoculated with 5×10^5 cells of the SQ2 highly metastatic anaplastic squamous cell carcinoma line, intradermally in shaved backs. When the primary tumors reached a diameter of 3-4 mm, i.p. administration of dimethyl TMH 200 μg/mouse (400 μM/mouse) was initiated on day 7 after tumor cell inoculation and then administered twice weekly to the tumor-bearing mice 2× per week for six weeks (total of 12 doses). Animal survival was then followed. […] This appears to be the result of reduced metastatic growth as evident from Table 1 in Example 4 above.

[11] = system: U251 human glioblastoma cells; type: cell-based; conditions: U251, complete darkness, exposure at least 72 hours, 0.1-20 μM
Protocol: as §1, §2
Three human malignant cell lines were evaluated to sensitivity to dimethyl TMH in vitro. […] The medium was aspirated, the adherent monolayer was washed with phosphate-buffered saline, and cell viability was monitored by the MTI assay. […]

[12] = 300 μM/mouse i.p. twice per week
[13] = 21 days after start of therapy, 300 μM/mouse i.p. twice per week

In the case of `COc1cc(OC)c2c3c(OC)cc(OC)c4c(=O)c5ccc(C)cc5c(c43)c3c4cc(C)ccc4c(=O)c1c23` [dimethyl-TMH, 10,13-dimethyl-1,3,4,6-tetramethoxy-helianthrone], the “cell viability (MTT)” value ([1]; complete darkness, exposure at least 72 hours, 0.1-20 μM) is reported as “Cell viability was lost”, the “loss of cell viability compared with hypericin” value ([1]; in the dark) is reported as “more effective than the treatment with hypericin” and the “effect on cell viability” value ([2]; normal non-proliferating PBL, absence of light irradiation) is reported as “no effect”. The “LD50 (cell death after photosensitization)” value ([2]; polychromatic white light 8 mW/cm2 for 30 min (14.4 J/cm2), MTT) was “approximately 0.65 μM”, the “proportion of cells in the S-phase with duration of exposure” value ([3]; 10 μM, 24, 48, 72 hours) was “increased steadily” and the cell cycle arrest ([3]; 10 μM) was “arrest at mid-S phase”. The cell cycle arrest ([3]; 20 μM) was “exclusive arrest at the S phase”, the “phases of the cell replication cycle at which malignant cells are arrested” value ([3]; glioblastoma and neuroblastoma cells) was “mid S and G2 phases” and the “cell viability (MTT)” value [4] was “Cell viability was lost”. For the same compound, the “tumor growth compared to untreated tumor-bearing control mice” value [5] was “significant inhibition of tumor growth”, the “adverse effect on the animals” value [6] was “no adverse effect” and the “toxicity of therapeutic doses to the animals” value [7, 12] was “non-toxic”. For the same compound, the “treated mice in which the primary tumors hardened and fell off” value [7, 12] was 5, the “number of mice with 1 focus” value [7, 13] was 8 and the “number of mice with 2 foci” value [7, 13] was 1. The “number of mice with 3 foci” value [7, 13] was 0, the “number of mice with 4 foci” value [7, 13] was 0 and the “number of tumor foci / multifocal spread of the tumor” value [7] was “considerably reduced”. The “number of tumor foci / multifocal spread of the tumor” value ([7]; listed as dimethyl TMH) was “completely inhibited”, the “photodynamic induction of cell death compared with hypericin” value ([8]; treatment in conjunction with light) was “more potent than hypericin” and the “time to cell death” value ([8]; with light) was 2 to 3 h. For the same compound, the neovascularization of tumors [9] was “prevented neovascularization”, the “prolongation of animal survival compared to untreated controls” value ([10]; 200 μg/mouse (400 μM/mouse) i.p. twice weekly for six weeks (12 doses)) was “approximately 40.3%” and the “primary tumor growth during the treatment” value ([10]; 200 μg/mouse i.p. twice weekly for six weeks) was “continued to grow”. The “cell viability (MTT)” value [11] was “Cell viability was lost”.
